{"source": "patent US20230241158A1", "about": "“Hydrophilic Degradable Microspheres for Local Delivering of Glycopeptide Antibiotics and Polycationic Peptide Antibiotics” (priority 2020, published 2023)", "parameters": "species or system White New Zealand male rabbits", "settings": "rabbit, in vivo, sc, 18 mg/kg", "experimental": "The study was performed in 6 White New Zealand male rabbits (body weight: 3.63±0.17 kg; min-max 3.47-3.88 kg) and included MS1 and MS2 loaded at 40 mg/mL of teicoplanin (Sigma, T-0578).\nBriefly, teicoplanin was reconstituted in water for injection at the concentration of […] (100 mL). Sterile dry beads (≈6 mL in 5% glucose) were hydrated/loaded in the teicoplanin solution (20 mL) with continuous agitation on rotating wheel (≈30 rpm). After 20 min, the supernatant was retrieved and kept for drug quantification. Microspheres (MS1 and MS2) were then washed in water, and kept on shell until the time of administration. At the time of injection, MS were suspended in saline and the appropriate volume of bead (≈4 mL) suspension was sampled for injection at a ratio of 2:1 MS/saline (Table 7). Each microsphere was administered once subcutaneously at the same dose of drug at two injection sites to 2 animals. Teicoplanin control (Sigma, T-0578) was administered once in one animal and repeated daily in another animal. […]\nA vascular access was gained in the auricular artery for blood sampling and in auricular vein for perfusion. […] The lowest limit of quantification of the method (LOQ) is 2.0 mg/L. The results of plasmatic assay of teicoplanin are reported in table 8 and in FIG. 7."}
{"substance": "teicoplanin [Injectable teicoplanin]", "values": [{"measurement": "Teicoplanin serum concentration", "value": "<2.0", "unit": "mg/L"}]}
